In patent US12351571B2, “Substituted quinoxaline compounds as inhibitors of FGFR tyrosine kinases” (ARRAY BIOPHARMA INC., priority 2018, dated 2025) one finds IC50 data, which are given here for ten compounds.

Test [1] addresses recombinant human FGFR2 cytoplasmic domain (Homo sapiens (Human), UniProt P21802). The experiment in a line: FGFR Enzyme Activity Assay (LanthaScreen TR-FRET), FGFR2. It is filed as biochemical. To be noted: 15 μM ATP, 20 minute incubation; read-out: FGFR2 Enz FRET IC50. As to the method:
FGFR2 kinase activity was measured by the Invitrogen LanthaScreen™ Assay technology which directly measures the amount of substrate phosphorylation by TR-FRET using a flourescently-labeled peptide and Europium-labeled antibody. Briefly, 200 pM His-tagged recombinant human FGFR2 cytoplasmic domain (amino acids 403-822) (Life Technologies Cat. No. PR5332A) was incubated with 100 nM Alexa Fluor® 647-Poly-GT Peptide Substrate (Life Technologies Cat. No. PV5836) and 15 μM ATP along with test compound in a buffer consisting of 250 mM HEPES, 25 mM MgCl2, 0.05% TritonX-100, pH 7.5, and 2% DMSO. Compounds were typically prepared in a threefold serial dilution in DMSO and added to the assay to give the appropriate final concentration. After a 20 minute incubation at 22° C., an equal volume of 2 nM LanthaScreen® Eu-PY20 Antibody (Life Technologies Cat. No. PV5691) and 10 mM EDTA were added to quench the kinase reaction and start the detection reaction. After an additional 60 minute incubation at 22° C., the reaction was measured using a PerkinElmer EnVision multimode plate reader via TR-FRET dual wavelength detection, and the percent of control (POC) calculated using a ratiometric emission factor. 100 POC was determined using no test compounds and 0 POC was determined using no enzyme. The POC values were fit to a 4-parameter logistic curve as a function of the concentration of the compound, and the IC50 value is the point where the curve crosses 50 POC.
(In TR-FRET formats the signal depends on donor and acceptor labels being close together.)

Another test concerns the target dephosphorylated FGFR1 (Homo sapiens (Human), UniProt P11362). The experiment in a line: FGFR Enzyme Binding Assay (HTRF tracer displacement), FGFR1. To be noted: 5 nM dephosphorylated FGFR1, 60 minute incubation at 22° C.; read-out: FGFR1 Enz Binding IC50. Here is the method:
The potency of compounds inhibiting human isoforms of FGFR kinase was determined using Life Technologies' Homogeneous Time Resolved Fluorescence (HTRF)-based binding assay technology. An incubation was conducted with either 5 nM dephosphorylated FGFR1 (Array Biopharma, p1702; SEQ ID NO: 1, amino acids 458 to 765, dephosphorylated by co-expression with PTP1b (protein tyrosine phosphatase 1B)), 5 nM dephosphorylated FGFR2 (Life Technologies, Cat. No. PV4106 that had been dephosphorylated with Lambda protein phosphatase (New England Biolabs, cat #P0753)) or 5 nM phosphorylated FGFR3 (Array Biopharma, p1836; SEQ ID NO: 5, amino acids 449 to 759), 50 nM Kinase Tracer 236 (Life Technologies Cat. No. PR9078A), 2 nM Biotin-anti-6HIS (Life Technologies Cat. No. PV6090) and 2 nM Europium-Streptavidin (Life Technologies Cat. No. PV6025) along with test compound in a buffer consisting of 50 mM HEPES ((4-(2-hydroxyethyl)-1-piperazineethanesulfonic acid, pH 7.5), 5 mM MgCl2, 0.005% Triton X-100, 1 mM DTT, 1 mM NaVO4 and 2% DMSO in a final volume of 12 μL Compounds were typically prepared as a 3-fold or 4-fold serial dilution in DMSO and added to the assay to give the appropriate final concentration. After a 60 minute incubation at 22° C., the extent of tracer displacement was determined using a PerkinElmer EnVision multimode plate reader via HTRF dual wavelength detection, and the percent of control (POC) was calculated using a ratiometric emission factor. One hundred POC was determined using no test compound, and 0 POC was determined in the presence of 1 μM of an appropriate control inhibitor. A 4-parameter logistic curve was fit to the POC values as a function of the concentration of compound, and the IC50 value was the point where the best-fit curve crossed 50 POC.

Test [2] has as its target recombinant human FGFR1 catalytic domain (Homo sapiens (Human), UniProt P11362). Put plainly: FGFR Enzyme Activity Assay (LanthaScreen TR-FRET), FGFR1. It is filed as biochemical. To be noted: 15 μM ATP, 20 minutes incubation; read-out: FGFR1 Enz FRET IC50. Here is the method: FGFR1 kinase activity was measured by the Invitrogen LanthaScreen™ Assay technology which directly measures the amount of substrate phosphorylation by Time-resolved fluorescence energy transfer (TR-FRET) using a flourescently-labeled peptide and Europium-labeled antibody. Briefly, 200 pM His-tagged recombinant human FGFR1 catalytic domain (amino acids 308-731) (Life Technologies Cat. No. PR4660A) was incubated with 100 nM Alexa Fluor® 647-Poly-GT Peptide Substrate (Life Technologies Cat. No. PV5836) and 15 μM ATP along with test compound in a buffer consisting of 250 mM HEPES, 25 mM MgCl2, 0.05% TritonX-100, pH 7.5, and 2% DMSO. Compounds were typically prepared in a threefold serial dilution in DMSO and added to the assay to give the appropriate final concentration. After a 20 minutes incubation at 22° C., an equal volume of 2 nM LanthaScreen® Eu-PY20 Antibody (Life Technologies Cat. No. PV5691) and 10 mM EDTA was added to quench the kinase reaction and start the detection reaction. After an additional 60 minute incubation at 22° C., the reaction was measured using a PerkinElmer EnVision multimode plate reader via TR-FRET dual wavelength detection, and the percent of control (POC) calculated using a ratiometric emission factor. 100 POC was determined using no test compounds and 0 POC was determined using no enzyme. The POC values were fit to a 4-parameter logistic curve as a function of the concentration of the compound, and the IC50 value is the point where the curve crosses 50 POC.

The next test deals with human wild type FGFR3 (Homo sapiens (Human), UniProt P22607). Put plainly: FGFR3 pERK Cell Assay. It is filed as cell-based. To be noted: HEK-293 cells, 1 hour compound, 100 ng/ml human FGF-acidic; maximum concentration 5 μM. As to the method:
HEK-293 cells transfected with dox-inducible human wild type FGFR3 (SEQ ID NO: 5) were plated in a collagen or poly-D-lysine coated 96 well flat bottom plates at 4×10^5 cells/well in complete DMEM medium containing 10% FBS and 1 μg/ml doxycycline and allowed to attach for 24 h at 37° C., 5% CO2. Cells were treated with compound using 1:3 serial dilutions with a maximum final concentration of 5 μM. Compound was incubated on cells for 1 hour at 37° C., 5% CO2. Cells were then stimulated with a final concentration of 100 ng/ml human FGF-acidic (R&D Systems Cat number 232-FA/CF) for 5 minutes at 37° C., 5% CO2. Medium was removed, and cells were lysed with lysis buffer containing phosphatase and protease inhibitors. Phospho ERK1/2 was measured using the Meso Scale Discovery sandwich assay (Meso Scale Discovery cat. no. K151DWD). The assay captures phospho ERK1/2 and detects with a sulfo-tagged total ERK1/2 antibody. The chemiluminescent signal was read on the Sector Imager Plate reader. 100 POC was determined using no test compounds and 0 POC was determined using a control compound. The POC values were fit to a 4-parameter logistic curve as a function of the concentration of the compound, and the IC50 value is the point where the curve crosses 50 POC.

dephosphorylated FGFR1, sequence (P11362 458-765): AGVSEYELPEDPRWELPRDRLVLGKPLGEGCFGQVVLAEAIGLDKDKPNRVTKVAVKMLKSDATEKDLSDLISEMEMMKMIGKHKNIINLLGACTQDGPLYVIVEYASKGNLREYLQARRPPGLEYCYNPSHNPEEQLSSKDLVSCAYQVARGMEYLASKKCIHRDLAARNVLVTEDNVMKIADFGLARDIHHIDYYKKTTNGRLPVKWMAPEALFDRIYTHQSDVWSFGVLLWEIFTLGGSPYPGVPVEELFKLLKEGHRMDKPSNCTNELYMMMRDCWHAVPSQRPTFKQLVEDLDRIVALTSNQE
human wild type FGFR3, sequence (P22607 23-806): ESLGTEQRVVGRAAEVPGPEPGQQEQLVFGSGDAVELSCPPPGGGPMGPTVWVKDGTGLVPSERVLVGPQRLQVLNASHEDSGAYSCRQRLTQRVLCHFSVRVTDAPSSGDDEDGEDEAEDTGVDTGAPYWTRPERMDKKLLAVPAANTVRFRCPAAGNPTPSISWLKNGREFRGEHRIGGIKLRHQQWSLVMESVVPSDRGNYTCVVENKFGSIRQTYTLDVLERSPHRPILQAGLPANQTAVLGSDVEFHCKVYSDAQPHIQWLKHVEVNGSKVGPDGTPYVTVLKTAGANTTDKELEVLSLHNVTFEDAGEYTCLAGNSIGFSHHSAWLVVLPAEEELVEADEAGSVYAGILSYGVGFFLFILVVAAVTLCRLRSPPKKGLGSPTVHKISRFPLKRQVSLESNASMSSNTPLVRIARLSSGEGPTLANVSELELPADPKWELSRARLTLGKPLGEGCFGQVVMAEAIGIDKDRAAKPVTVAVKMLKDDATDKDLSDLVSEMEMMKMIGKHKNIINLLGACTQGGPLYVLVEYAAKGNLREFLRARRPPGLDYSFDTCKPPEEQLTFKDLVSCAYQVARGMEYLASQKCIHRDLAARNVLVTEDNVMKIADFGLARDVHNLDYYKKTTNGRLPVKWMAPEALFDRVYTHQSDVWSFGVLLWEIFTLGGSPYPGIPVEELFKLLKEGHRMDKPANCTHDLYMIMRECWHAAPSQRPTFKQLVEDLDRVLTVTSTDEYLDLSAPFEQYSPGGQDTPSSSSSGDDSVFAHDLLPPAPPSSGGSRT
recombinant human FGFR2 cytoplasmic domain, sequence (P21802 402-821): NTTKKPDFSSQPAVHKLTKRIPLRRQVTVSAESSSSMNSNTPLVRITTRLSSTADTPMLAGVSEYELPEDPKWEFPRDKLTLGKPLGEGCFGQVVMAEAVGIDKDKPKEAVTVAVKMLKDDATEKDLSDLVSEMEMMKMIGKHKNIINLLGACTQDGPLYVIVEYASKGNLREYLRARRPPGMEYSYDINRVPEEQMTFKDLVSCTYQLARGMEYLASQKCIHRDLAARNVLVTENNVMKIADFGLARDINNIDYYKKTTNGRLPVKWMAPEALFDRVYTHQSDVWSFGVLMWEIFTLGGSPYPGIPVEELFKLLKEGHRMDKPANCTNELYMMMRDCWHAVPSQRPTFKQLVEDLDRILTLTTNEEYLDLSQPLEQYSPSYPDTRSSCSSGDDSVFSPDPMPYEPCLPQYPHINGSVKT
recombinant human FGFR1 catalytic domain, sequence (P11362 other isoform, or with tags, fused parts or gaps): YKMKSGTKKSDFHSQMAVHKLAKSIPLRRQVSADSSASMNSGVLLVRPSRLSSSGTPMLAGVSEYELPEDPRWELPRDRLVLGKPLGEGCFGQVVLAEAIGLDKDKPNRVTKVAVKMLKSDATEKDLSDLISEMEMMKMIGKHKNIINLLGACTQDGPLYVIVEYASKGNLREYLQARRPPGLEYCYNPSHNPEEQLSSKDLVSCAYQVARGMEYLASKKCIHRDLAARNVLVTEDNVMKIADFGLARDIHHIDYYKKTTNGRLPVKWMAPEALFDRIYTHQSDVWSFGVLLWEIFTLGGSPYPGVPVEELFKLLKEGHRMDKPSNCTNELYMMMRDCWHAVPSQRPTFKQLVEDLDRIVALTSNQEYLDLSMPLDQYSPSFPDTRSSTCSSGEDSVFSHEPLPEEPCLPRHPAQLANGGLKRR

Take `COc1cc(Nc2ccc3ncc(-c4c(C)nn(C5CCN(C(=O)C6(F)CN(C(=O)/C=C/CN(C)C)C6)CC5)c4C)nc3c2)cc(OC)c1` [Example 23, (E)-1-(3-(4-(4-(7-((3,5-dimethoxyphenyl)amino)-quinoxalin-2-yl)-3,5-dimethyl-1H-pyrazol-1-yl)piperidine-1-carbonyl)-3-fluoroazetidin-1-yl)-4-(dimethylamino)but-2-en-1-one]: the IC50 in test [1] came to 3460 nM; at dephosphorylated FGFR1 it was 842 nM; in test [2], 5000 nM; against human wild type FGFR3, 699 nM.
The like results for `C=CC(=O)N1CC(O)(C(=O)N2CCC(n3cc(-c4cnc5ccc(N(C)c6cc(OC)cc(OC)c6)cc5n4)cn3)CC2)C1` [Example 27, 1-(3-(4-(4-(7-((3,5-dimethoxyphenyl)(methyl)amino)quinoxalin-2-yl)-1H-pyrazol-1-yl)piperidine-1-carbonyl)-3-hydroxyazetidin-1-yl)prop-2-en-1-one] were, in that order, 12 nM, 13 nM, 10 nM and 12 nM.
As to `C=CC(=O)N1CC[C@@H](C(=O)N2CCC(n3cc(-c4cnc5ccc(Nc6cc(OC)cc(OC)c6)cc5n4)cn3)CC2)C1` [Example 2, (R)-1-(3-(4-(4-(7-((3,5-dimethoxyphenyl)amino)-quinoxalin-2-yl)-1H-pyrazol-1-yl)piperidine-1-carbonyl)pyrrolidin-1-yl)-prop-2-en-1-one], the IC50 came to 11 nM in test [1], 24 nM at dephosphorylated FGFR1, 49 nM in test [2] and 207 nM against human wild type FGFR3.
In the same order, the values of `C=CC(=O)N1CC(C#N)(C(=O)N2CCC(n3cc(-c4cnc5ccc(Nc6cc(OC)cc(OC)c6)cc5n4)cn3)CC2)C1` [Example 12, 1-acryloyl-3-(4-(4-(7-((3,5-dimethoxyphenyl)-amino)quinoxalin-2-yl)-1H-pyrazol-1-yl)-piperidine-1-carbonyl)-azetidine-3-carbonitrile] are 33 nM, 48 nM, 89 nM and 22 nM.
In the same order, the values of `COc1cc(Nc2ccc3ncc(-c4cnn(C5CCN(C(=O)C6(F)CN(C(=O)/C=C/CN(C)C)C6)CC5)c4)nc3c2)cc(OC)c1` [Example 10, (E)-1-(3-(4-(4-(7-((3,5-dimethoxyphenyl)amino)-quinoxalin-2-yl)-1H-pyrazol-1-yl)piperidine-1-carbonyl)-3-fluoro-azetidin-1-yl)-4-(dimethylamino)but-2-en-1-one] are 11 nM, 28 nM, 35 nM and 14 nM.
On to `COc1cc(Nc2ccc3ncc(-c4ccc(N5CCN(C(=O)C6(F)CN(C(=O)/C=C/CN(C)C)C6)CC5)nc4)nc3c2)cc(OC)c1` [Example 7, (E)-1-(3-(4-(5-(7-((3,5-dimethoxyphenyl)amino)-quinoxalin-2-yl)pyridin-2-yl)piperazine-1-carbonyl)-3-fluoroazetidin-1-yl)-4-(dimethylamino)but-2-en-1-one], for which the IC50 amounted to 227 nM in test [1], 342 nM on dephosphorylated FGFR1, 364 nM in test [2] and 77 nM on human wild type FGFR3.
The like results for `C=CC(=O)N1CCC(C(=O)N2CCC(n3cc(-c4cnc5ccc(Nc6cc(OC)cc(OC)c6)cc5n4)cn3)CC2)CC1` [Example 3, 1-(4-(4-(4-(7-((3,5-dimethoxyphenyl)amino)-quinoxalin-2-yl)-1H-pyrazol-1-yl)piperidine-1-carbonyl)piperidin-1-yl)prop-2-en-1-one] were, in that order, 12 nM, 26 nM, 51 nM and 135 nM.
As to `COc1cc(Nc2ccc3ncc(-c4cnn(C5CCN(C(=O)C6(C#N)CN(C(=O)/C=C/CN(C)C)C6)CC5)c4)nc3c2)cc(OC)c1` [Example 11, (E)-3-(4-(4-(7-((3,5-dimethoxyphenyl)amino)-quinoxalin-2-yl)-1H-pyrazol-1-yl)piperidine-1-carbonyl)-1-(4-(dimethyl-amino)but-2-enoyl)-azetidine-3-carbonitrile], the IC50 was 15 nM in test [1], 44 nM on dephosphorylated FGFR1, 44 nM in test [2] and 19 nM at human wild type FGFR3.
Take `COc1cc(Nc2ccc3ncc(-c4ccc(N5CCN(C(=O)C6(F)CN(C(=O)/C=C/CN(C)C)C6)CC5)nc4C)nc3c2)cc(OC)c1` [Example 13, (E)-1-(3-(4-(5-(7-((3,5-dimethoxyphenyl)amino)-quinoxalin-2-yl)-6-methylpyridin-2-yl)-piperazine-1-carbonyl)-3-fluoroazetidin-1-yl)-4-(dimethylamino)but-2-en-1-one]: the IC50 in test [1] is 1910 nM; at dephosphorylated FGFR1, 6620 nM; in test [2] it was 2150 nM.
The like results for `C=CC(=O)N1CC(C(=O)N2CCN(c3cccc(-c4cnc5ccc(Nc6cc(OC)cc(OC)c6)cc5n4)c3)CC2)C1` [Example 25, 1-(3-(4-(3-(7-((3,5-dimethoxyphenyl)amino)-quinoxalin-2-yl)phenyl)-piperazine-1-carbonyl)-azetidin-1-yl)prop-2-en-1-one] were, in that order, 1740 nM, 759 nM and 1760 nM.

In general, IC50 refers to the concentration at which inhibition is half-maximal.
